These results are taken from patent publication US4977189A, “Substituted guanidinedicarbonyl derivatives” (American Cyanamid Company, priority 1988, dated 1990).

Several values for one entry are separate records, joined by “and”; a condition that tells them apart may be missing. Identical values can stand only once.

Test [1] has as its system Brain-Specific Receptors (3H-benzodiazepine binding). Nature of the test: Inhibition of the Binding of 3H-Benzodiazepine to Brain-Specific Receptors of Rats. The arrangement: species or system rat (male albino, Wistar strain; whole cortex). As to conditions: 3H-diazepam (1.5 nM) or 3H-flunitrazepam (1.0 nM); rat cortex P2-fraction; 30 minutes in ice; test concentration not given. An excerpt: A test utilized for the determination of anxiolytic activity is the measurement of the ability of test compounds to inhibit the binding of tritiated benzodiazepines to brain-specific recptors of warm-blooded animals. A modification of the method described by R. F. Squires, et al., Nature, 266, No. 21, pg 732 (April, 1977) and H. Mohler, et al., Science, 198, pg 849 (1977) was employed.
Male albino rats (Wistar strain, weighing 150-200 g each) were used. The test compounds were solubilized in either dimethylformamide, acetic acid, ethanol or hydrochloric acid.
Whole cortex of rats was homogenized gently in 20 volumes of ice-cold 0.32M sucrose, centrifuged twice at 1000 g for 10 minutes and then recentrifuged at 30,000 g for 20 minutes to produce a crude P2 -synaptosomal fraction. The P2 -fraction was either: (1) resuspended in twice the original volume in hypotonic 50 mM Tris.HCl (pH 7.4), or (2) resuspended in one-half the original volume in hypotonic 10 mM Tris.HCl (pH 7.4) and frozen (-20° C.) until time of use. Frozen P2 preparations were thawed and resuspended in four times the original homogenizing volume at time of assay.
The binding assay consisted of 300 μl of the P2 -fraction suspension (0.2-0.4 mg protein), 100 μl of test drug and 100 μl of ^3 H-diazepam (1.5 nM, final concentration) or ^3 H-flunitrazepam (1.0 nM, final concentration) which was added to 1.5 ml of 50 mM Tris.HCl (pH 7.4). Non-specific binding controls and total binding controls d 100 μl of diazepam (3 μM final concentration) and 100 μl of deionized water, respectively, in place of the test compound. Incubation for 30 minutes proceeded in ice and was terminated by filtration, under vacuum, through glass fiber filters. The filters were washed twice with 5 ml of ice-cold 50 mM Tris.HCl (pH 7.4) and placed in scintillation vials. After drying at 50°-60° C. for 30 minutes, 10 ml of diluent was added and the radioactivity determined in a scintillation counter.
Inhibition of binding was calculated by the difference between total binding and binding in the presence of test compound, divided by the total binding, X 100.

For test [2], the system named is Royal Hart mice. The test can be described thus: Hypoxic Survival Test. As to conditions: Mus musculus, ip, 5 min, 30 minutes prior, 10% oxygen, survival after 5 minutes, read-out: % Survivors; for responders at 50 mg/kg: 50 mg/kg intraperitoneally; for responders at 100 mg/kg: 100 mg/kg intraperitoneally. In kind it is in vivo, mouse (Royal Hart). The protocol: A useful in vivo test that measures how effectively central nervous system-acting drugs enhance survival in a hypoxic environment, presumably by improving the ratio of energy supply to demand is known as the Hypoxic Survival Test. […] Drugs are tested by intraperitoneally injecting groups of mice 30 minutes prior to placing them in a hypoxic mixture and measuring survival. The rationale of this test is that drugs which enhance survival under hypoxic conditions without concomitant, depression or sedative side effects, may do so by enhancing energy metabolism, or by preserving normal brain function under conditions of reduced energy metabolism. Given the dependence of the brain on a constant supply of energy, drugs which have this property may have many far-reaching therapeutic indications, including recovery from stroke and closed head injury, as well as reducing the deleterious effects of the aging central nervous system.
Groups of 20 Royal Hart mice (6 weeks of age) are injected intraperitoneally with test compound (1-200 mg/kg) 30 minutes prior to placing them in a hypoxic mixture (10% oxygen in 90% […]) and measuring survival after 5 minutes.
A separate group of 20 mice is injected intraperitoneally with saline solution (0.01 cc/g of body weight) and processed as described above.
Still another group of 20 mice is injected intraperitoneally with 0.125 mg/kg of physostigmine and processed as described above.

For test [3], the system named is Swiss-Webster mice. The test can be described thus: Passive Avoidance Anoxic Induced Amnesia Test. It counts as in vivo, mouse (Swiss-Webster, middle-aged). As to conditions: 50 mg/kg intraperitoneally, 30 minutes prior to training and testing; latency vs saline control; 30% considered active. An excerpt: Another in vivo test associated with decreased neural function in mammals is the Passive-Avoidance Anoxic-Induced-Amnesia Test. This test is used to determine the attenuation of anoxic induced amnesia in mice treated with drug, as compared to saline treated control animals with no drug.
A shock-motivated, single trial, step-through passive avoidance procedure is used. Groups of 25 Swiss-Webster, middle-aged mice (9 months of age) are placed singly in the front chamber of a 2-chamber box and are allowed to voluntarily cross into the rear chamber. As soon as the mouse enters the rear chamber, a door automatically traps the animal and a mild electric shock (0.4 mA for 4 seconds) is delivered to its feet. Following the foot shock, the mice are initially placed in an anoxic environment (0% oxygen) for 12 seconds, which quickly induces unconsciousness. They are then placed in a hypoxic environment (15% oxygen) for four minutes which prolongs the oxygen deprived state, maintaining unconsciousness. All testing is performed 24 hours later, and in all cases the mice appear fully recovered from the previous anoxic/hypoxic treatment. All test compounds are administered intraperitoneally at a dose of 10-200 mg/kg, 30 minutes prior to training and testing. […]
The latency to enter the rear chamber is recorded for both training and testing. […]

In the case of `COc1ccc(C(=O)NC(=NC(=O)c2cccs2)Nc2cccc(C(N)=O)c2)cc1` [N-[[[3-(Aminocarbonyl)phenyl]amino][(4-methoxybenzoyl)amino]methylene]-2-thiophenecarboxamide], the “% Inhibition” value in test [1] amounted to 19%. Moreover, in test [2], the responders at 50 mg/kg worked out at 45% and the responders at 100 mg/kg stood at 45%.

In the case of `Cc1cccc(C(=O)N=C(NC(=O)c2cccc(C)c2)Nc2ccc(C(N)=O)cc2)c1` [N,N'-[[4-(Aminocarbonyl)phenyl]carbonimidoyl]bis[3-methylbenzamide]], in test [1], the “% Inhibition” value is recorded as 25%. Further, in test [2], the responders at 50 mg/kg came to 40% and the responders at 100 mg/kg worked out at 43%.

`Cc1ccc(C(=O)NC(=NC(=O)c2cccc(C)c2)Nc2ccc(C(N)=O)cc2)cc1` [N-[[[4-(Aminocarbonyl)phenyl]amino][(4-methylbenzoyl)amino]methylene]-3-methylbenzamide]: in test [1], the “% Inhibition” value is recorded as 85%.

In the case of `NC(=O)c1ccc(N=C(NC(=O)c2ccccc2)NC(=O)c2ccccc2)cc1` [N,N'-[[[4-(Aminocarbonyl)phenyl]imino]methylene]bis[benzamide]], in test [2], the responders at 50 mg/kg stood at 40% and the responders at 100 mg/kg was 62%. In addition, the responders at 200 mg/kg in test [2] (200 mg/kg intraperitoneally) was determined as 47%. Moreover, the “% Improvement” value in test [3] is 50% and 54%.

Consider `Cc1cccc(C(=O)NC(=Nc2ccc(C(=O)N(C)C)cc2)NC(=O)c2cccc(C)c2)c1` [4-[[Bis[(3-methylbenzoyl)amino]methylene]amino]-N,N-dimethylbenzamide], for which the “% Inhibition” value in test [1] is 29%.

For `Cc1cccc(C(=O)N=C(NC(=O)c2ccccc2)Nc2cccc(C(N)=O)c2)c1` [N-[[[3-(Aminocarbonyl)phenyl]amino](benzoylamino)methylene]-3-methylbenzamide], the “% Inhibition” value in test [1] turned out to be 15%.

In the case of `Cc1ccc(C(=O)N=C(NC(=O)c2ccc(Br)cc2)Nc2ccc(C(N)=O)cc2)cc1` [N-[[[4-(Aminocarbonyl)phenyl]amino][(4-bromobenzoyl)amino]methylene]-4-methylbenzamide], the “% Inhibition” value in test [1] is 57%.
